Reference: patent US6372209B1, “Vaginal lactobacillus medicant” (Gyne Logix, Inc., priority 1997, dated 2002)

Assay: Purity and genetic fingerprint (Rep PCR) of suppository lots
Procedure: (1.1) Purity of the strain: The purity of the suppository strain (i.e., lack of presence of contaminating organisms in a culture) was confirmed by specifically distinguishing the suppository strain from other strains using DNA fingerprinting techniques. DNA fingerprinting was performed by Repetitive Sequence Polymerase Chain Reaction (Rep PCR). In order to determine whether the Rep PCR method could distinguish the suppository strain (CTV-05) from endogenous L. crispatus, 40 strains of L. crispatus were recovered from the vagina of women of child-bearing age and compared to CTV-05. L. crispatus species identity was determined using whole chromosomal DNA homology to control strain L. crispatus ATCC 33197. […] The suppository strain (CTV-05) was distinguished from the others by four bands in the 2500-1500 base pair region. In this region, the CTV-05 fingerprint consists of intense bands at 2500 and 1500 and less amplified bands at 2000 and 1736 base pairs (data not shown).
Six different lots of L. crispatus CTV-05 prepared over a 2 year period were evaluated for purity and stability of the genetic fingerprint. […] Further, there has been no lot-to-lot variability in the “fingerprint” of the DNA of the suppository strain (data not shown).

Lactobacillus crispatus CTV-05
contaminants in lots (six lots prepared over a 2 year period, enriched chopped meat broth, anaerobic): free of contaminants | genetic fingerprint (Rep PCR) between lots (small scale and scale-up lots): identical fingerprints
